#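 All cell lines were grown in 96-well plates and treated with compound for 48 hours. GI50 = concentration required for 50% inhibition of growth. TGI: total growth inhibition.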 Where a SMILES comes first, the peptide text is derived from it.
# Assays:
# Assay in all cases: NCI anticancer screen, dose series, 48 h
# NCI-H226 lung = test system: NCI-H226 lung
# OVCAR-8 ovarian = test system: OVCAR-8 ovarian
# SW-620 colon = test system: SW-620 colon
# SK-MEL-28 melanoma = test system: SK-MEL-28 melanoma
# RXF 393 renal = test system: RXF 393 renal
# OVCAR-5 ovarian = test system: OVCAR-5 ovarian
# MCF7 breast = test system: MCF7 breast
# EKVX NSCLC = test system: EKVX NSCLC
# HCT-116 colon = test system: HCT-116 colon
# CAKI-1 renal = test system: CAKI-1 renal
# PC-3 prostate = test system: PC-3 prostate
# HS 578T breast = test system: HS 578T breast
# SK-OV-3 ovarian = test system: SK-OV-3 ovarian
# TK-10 renal = test system: TK-10 renal
# HOP-92 NSCLC = test system: HOP-92 NSCLC
# OVCAR-4 ovarian = test system: OVCAR-4 ovarian
# CCRF-CEM leukemia = test system: CCRF-CEM leukemia
# NCI-H460 lung = test system: NCI-H460 lung
# HL-60(TB) leukemia = test system: HL-60(TB) leukemia
# UO-31 renal = test system: UO-31 renal
# RPMI-8226 leukemia = test system: RPMI-8226 leukemia
# SF-539 CNS = test system: SF-539 CNS
# A549 NSCLC = test system: A549 NSCLC
# MOLT-4 leukemia = test system: MOLT-4 leukemia
# M14 melanoma = test system: M14 melanoma
# 786-0 renal = test system: 786-0 renal
# NCI-H23 lung = test system: NCI-H23 lung
# HT29 colon = test system: HT29 colon
# MDA-MB-231 breast = test system: MDA-MB-231 breast
# NCI-H522 lung = test system: NCI-H522 lung
# SN12C renal = test system: SN12C renal
# U251 CNS = test system: U251 CNS
# MALME-3M melanoma = test system: MALME-3M melanoma
# UACC-62 melanoma = test system: UACC-62 melanoma
# MDA-MB-435 = test system: MDA-MB-435
# SF-295 CNS = test system: SF-295 CNS
# K-562 leukemia = test system: K-562 leukemia
# KM12 colon = test system: KM12 colon
# SNB-19 CNS = test system: SNB-19 CNS
# SK-MEL-5 melanoma = test system: SK-MEL-5 melanoma
# SF-268 CNS = test system: SF-268 CNS
# IGROV1 ovarian = test system: IGROV1 ovarian
# SNB-75 CNS = test system: SNB-75 CNS
# ACHN renal = test system: ACHN renal
# LOX IMVI melanoma = test system: LOX IMVI melanoma
# HCT-15 colon = test system: HCT-15 colon
# COLO 205 colon = test system: COLO 205 colon
# T-47D breast = test system: T-47D breast
# DU-145 prostate = test system: DU-145 prostate
# NCI/ADR-RES ovarian = test system: NCI/ADR-RES ovarian
# SK-MEL-2 melanoma = test system: SK-MEL-2 melanoma
# BT-549 breast = test system: BT-549 breast
# SR leukemia = test system: SR leukemia
# HCC-2998 colon = test system: HCC-2998 colon
# A498 renal = test system: A498 renal
# OVCAR-3 ovarian = test system: OVCAR-3 ovarian
# HOP-62 NSCLC = test system: HOP-62 NSCLC
# UACC-257 melanoma = test system: UACC-257 melanoma
smiles,measurement,setting,value
CCC(C)C1NC(=O)C(CCCCN)NC(=O)C(CCCCN)NC(=O)C(CC(C)C)NC(=O)C(CCCCN)NC(=O)C(C(C)CC)NC(=O)C(C(C)C)NC(=O)C(C(C)CC)NC(=O)C(CCCCN)NC(=O)C(CCCCN)NC(=O)C(C)NC(=O)C(CCCCN)NC(=O)C(CC(C)C)NC1=O (stereo unspecified) (cyclo(AKKIVIKLKKILK); configuration not given here),GI50,NCI-H226 lung,1210 nM
same,TGI,NCI-H226 lung,3370 nM
same,GI50,OVCAR-8 ovarian,1730 nM
same,TGI,OVCAR-8 ovarian,6400 nM
same,GI50,SW-620 colon,1750 nM
same,TGI,SW-620 colon,3590 nM
same,GI50,SK-MEL-28 melanoma,1970 nM
same,TGI,SK-MEL-28 melanoma,4610 nM
same,GI50,RXF 393 renal,1490 nM
same,TGI,RXF 393 renal,3010 nM
same,GI50,OVCAR-5 ovarian,2330 nM
same,TGI,OVCAR-5 ovarian,8180 nM
same,GI50,MCF7 breast,1870 nM
same,TGI,MCF7 breast,5980 nM
same,GI50,EKVX NSCLC,1330 nM
same,TGI,EKVX NSCLC,6000 nM
same,GI50,HCT-116 colon,1460 nM
same,TGI,HCT-116 colon,3070 nM
same,GI50,CAKI-1 renal,1560 nM
same,TGI,CAKI-1 renal,3760 nM
same,GI50,PC-3 prostate,779 nM
same,TGI,PC-3 prostate,8520 nM
same,GI50,HS 578T breast,2000 nM
same,TGI,HS 578T breast,5660 nM
same,GI50,SK-OV-3 ovarian,2090 nM
same,TGI,SK-OV-3 ovarian,5880 nM
same,GI50,TK-10 renal,1870 nM
same,TGI,TK-10 renal,4630 nM
same,GI50,HOP-92 NSCLC,1270 nM
same,TGI,HOP-92 NSCLC,3240 nM
same,GI50,OVCAR-4 ovarian,1280 nM
same,TGI,OVCAR-4 ovarian,13400 nM
same,GI50,CCRF-CEM leukemia,2150 nM
same,TGI,CCRF-CEM leukemia,9300 nM
same,GI50,NCI-H460 lung,1850 nM
same,TGI,NCI-H460 lung,4280 nM
same,GI50,HL-60(TB) leukemia,2420 nM
same,TGI,HL-60(TB) leukemia,6930 nM
same,GI50,UO-31 renal,1380 nM
same,TGI,UO-31 renal,2740 nM
same,GI50,RPMI-8226 leukemia,1110 nM
same,TGI,RPMI-8226 leukemia,3740 nM
same,GI50,SF-539 CNS,2050 nM
same,TGI,SF-539 CNS,4380 nM
same,GI50,A549 NSCLC,2260 nM
same,TGI,A549 NSCLC,9640 nM
same,GI50,MOLT-4 leukemia,1700 nM
same,TGI,MOLT-4 leukemia,5290 nM
same,GI50,M14 melanoma,1600 nM
same,TGI,M14 melanoma,3460 nM
same,GI50,786-0 renal,1800 nM
same,TGI,786-0 renal,3640 nM
same,GI50,NCI-H23 lung,704 nM
same,TGI,NCI-H23 lung,4450 nM
same,GI50,HT29 colon,2930 nM
same,TGI,HT29 colon,10800 nM
same,GI50,MDA-MB-231 breast,1720 nM
same,TGI,MDA-MB-231 breast,4250 nM
same,GI50,NCI-H522 lung,1740 nM
same,TGI,NCI-H522 lung,4700 nM
same,GI50,SN12C renal,1940 nM
same,TGI,SN12C renal,6460 nM
same,GI50,U251 CNS,1590 nM
same,TGI,U251 CNS,3250 nM
same,GI50,MALME-3M melanoma,1450 nM
same,TGI,MALME-3M melanoma,3300 nM
same,GI50,UACC-62 melanoma,1270 nM
same,TGI,UACC-62 melanoma,2940 nM
same,GI50,MDA-MB-435,1770 nM
same,TGI,MDA-MB-435,3800 nM
same,GI50,SF-295 CNS,1140 nM
same,TGI,SF-295 CNS,2520 nM
same,GI50,K-562 leukemia,1310 nM
same,TGI,K-562 leukemia,5470 nM
same,GI50,KM12 colon,2550 nM
same,TGI,KM12 colon,8090 nM
same,GI50,SNB-19 CNS,2930 nM
same,TGI,SNB-19 CNS,14000 nM
same,GI50,SK-MEL-5 melanoma,1010 nM
same,TGI,SK-MEL-5 melanoma,2190 nM
same,GI50,SF-268 CNS,2590 nM
same,TGI,SF-268 CNS,11300 nM
same,GI50,IGROV1 ovarian,1970 nM
same,TGI,IGROV1 ovarian,6180 nM
same,GI50,SNB-75 CNS,1720 nM
same,TGI,SNB-75 CNS,4350 nM
same,GI50,ACHN renal,2360 nM
same,TGI,ACHN renal,6840 nM
same,GI50,LOX IMVI melanoma,1730 nM
same,TGI,LOX IMVI melanoma,3200 nM
same,GI50,HCT-15 colon,1600 nM
same,TGI,HCT-15 colon,3270 nM
same,GI50,COLO 205 colon,1740 nM
same,TGI,COLO 205 colon,3650 nM
same,GI50,T-47D breast,1690 nM
same,TGI,T-47D breast,6700 nM
same,GI50,DU-145 prostate,2990 nM
same,TGI,DU-145 prostate,10700 nM
same,GI50,NCI/ADR-RES ovarian,1070 nM
same,TGI,NCI/ADR-RES ovarian,5610 nM
same,GI50,SK-MEL-2 melanoma,2060 nM
same,TGI,SK-MEL-2 melanoma,4880 nM
same,GI50,BT-549 breast,1790 nM
same,TGI,BT-549 breast,3960 nM
same,GI50,SR leukemia,1860 nM
same,TGI,SR leukemia,5020 nM
same,GI50,HCC-2998 colon,2650 nM
same,TGI,HCC-2998 colon,8520 nM
same,GI50,A498 renal,1660 nM
same,TGI,A498 renal,3840 nM
same,GI50,OVCAR-3 ovarian,1620 nM
same,TGI,OVCAR-3 ovarian,3630 nM
same,GI50,HOP-62 NSCLC,1760 nM
same,TGI,HOP-62 NSCLC,3970 nM
same,GI50,UACC-257 melanoma,2420 nM
same,TGI,UACC-257 melanoma,7570 nM

# Source: PubChem BioAssay (NCI)
